We go through 13 compounds from publication PMC9482650, “Quantitative fragmentomics allow affinity mapping of interactomes” (Nature Communications, 2022).

Like-named read-outs stand apart in the source and are kept apart here. Ends that are not written are not given here.

Assay [1] has as its target T1, MAST2 PDZ (Homo sapiens, UniProt Q6P0Q8).
T1 sequence (Q6P0Q8 1104-1192 limits assumed): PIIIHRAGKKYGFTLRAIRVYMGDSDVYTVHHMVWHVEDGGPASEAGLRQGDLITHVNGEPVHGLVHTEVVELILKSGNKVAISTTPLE
The assay can be described thus: biochemical. The assay is classed as binding.

Assay [2] concerns the target SNX27 PDZ (Homo sapiens, UniProt Q96L92). The assay can be described thus: Holdup assay. The assay is classed as binding.
In assay [3] the target is DLG1_1 PDZ (Homo sapiens, UniProt Q12959). As to the kind of experiment: Holdup assay. The assay is classed as binding.
Assay [4] deals with DLG1_2 PDZ (Homo sapiens, UniProt Q12959). The assay can be described thus: Holdup assay. The assay is classed as binding.
In assay [5] the target is T2, TX1BP3 PDZ (Homo sapiens, UniProt O14907).
T2 sequence (O14907 15-112 limits assumed): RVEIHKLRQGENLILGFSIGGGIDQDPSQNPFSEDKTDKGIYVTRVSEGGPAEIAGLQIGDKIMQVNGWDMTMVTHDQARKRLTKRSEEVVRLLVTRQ
As to the kind of experiment: Holdup assay. The assay is classed as binding.

The target in assay [6] is SCRIB_1 PDZ (Homo sapiens, UniProt Q14160). As to the kind of experiment: Holdup assay. The assay is classed as binding.
Assay [7] concerns the target T3, SCRIB2 PDZ (Homo sapiens, UniProt Q14160).
T3 sequence (Q14160 862-950 limits assumed): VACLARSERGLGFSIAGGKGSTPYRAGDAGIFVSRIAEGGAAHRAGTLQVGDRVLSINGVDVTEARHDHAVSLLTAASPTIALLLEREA
The assay can be described thus: Holdup assay. The assay is classed as binding.

The target in assay [8] is Htra1. Particulars: SPR; ref Murwantoko et al 2004; cited from earlier work. The text has this: (§1) Supplement 41467_2022_33018_MOESM4_ESM.xlsx, sheet "reference DMI interactome" | column: Affinity (mM); pKd, measured in literature
(Surface plasmon resonance follows binding to a sensor surface in real time, without labels.)

Assay [9] concerns the target Htra2. As to conditions: SPR; ref Murwantoko et al 2004; cited from earlier work.
Source text: as §1

Assay [10] has as its target T4, SYNJ2BP PDZ (Homo sapiens, UniProt P57105).
T4 sequence (P57105 13-100 limits assumed): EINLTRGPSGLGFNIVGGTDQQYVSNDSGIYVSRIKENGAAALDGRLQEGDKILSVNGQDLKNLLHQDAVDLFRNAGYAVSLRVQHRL
As to the kind of experiment: Holdup assay. The assay is classed as binding.

Assay [11] relates to HEK293T cells. As to the kind of experiment: Label-free MS proteome of stable cell lines expressing HPV16 E6 or E6ΔPBM. The assay is classed as cell-based, human. As to conditions: protein level. On the procedure: HEK293T and HeLa cells were authenticated and found 100% identity to ATCC cat. CRL-3216 and ATCC cat. CCL-2, respectively. Jurkat and HaCat cell lines were not authenticated (original source: ECACC and Deutsches Krebsforschungszentrum DKFZ, respectively). HeLa cells were grown in DMEM (1 g/L glucose, Gibco) medium completed with 5% FCS and 40 μg/mL gentamicin, diluted every 3rd/4th day 1/10. HaCat cells were grown in DMEM (1 g/L glucose, Gibco) medium completed with 10% FCS and 40 μg/mL gentamicin, diluted every 3rd/4th day 1/4. Jurkat cells were grown in RPMI (Gibco) medium completed with 10% FCS and 40 μg/mL gentamicin, diluted every 3rd/4th day 1/12. All cells were kept at 37 °C and 5% CO2. For proteomics analyses cells were seeded on T-175 flasks. After they reached confluency, adherent cells were washed with PBS once and collected by scraping with ice-cold lysis buffer (Hepes-KOH pH 7.5 50 mM, NaCl 150 mM, Triton X-100 1%, complete EDTA-free protease inhibitor cocktail 1×, EDTA 2 mM, TCEP 5 mM, glycerol 10%). Jurkat cells were collected by 1000 g × centrifugation, washed once with PBS, then collected by 1000 g × 5 min centrifugation again and lysed in ice-cold lysis buffer. Lysates were sonicated 4 × 20 s with 1 s long pulses on ice, then incubated rotating at 4 °C for 30 min. Lysates were centrifuged at 12,000 rpm 4 °C for 20 min and supernatant was kept for further analysis. Concentration determination was carried out by standard Bradford method (Bio-Rad Protein Assay Dye Reagent #5000006) using BSA (MP BIomedicals #160069) as control on a Bio-Rad SmartSpec 3000 spectrophotometer instrument.
The samples were precipitated with TCA 20% overnight at 4 °C and centrifuged at 14,000 rpm for 10 min at 4 °C. The protein pellets were washed twice with 1 mL cold acetone and air dried. The protein extracts were solubilized in urea 8 M, reduced with 5 mM TCEP for 30 min, and alkylated with 10 mM iodoacetamide for 30 min in the dark. Double digestion was performed at 37 °C with 500 ng endoproteinase Lys-C for 4 h, followed by fourfold dilution and an overnight digestion with 500 ng trypsin. Peptide mixtures were then desalted on C18 spin-column and dried on Speed-Vacuum.
Samples were analyzed using an Ultimate 3000 nano-RSLC (Thermo Scientific, San Jose California) coupled in line with a LTQ-Orbitrap ELITE mass spectrometer via a nano-electrospray ionization source (Thermo Scientific, San Jose California). Peptide mixtures were injected in 0.1% TFA on a C18 Acclaim PepMap100 trap-column (75 µm ID × 2 cm, 3 µm, 100 Å, Thermo Fisher Scientific) for 3 min at 5 µL/min with 2% ACN, 0.1% FA in H2O and then separated on a C18 Accucore nano-column (75 µm ID × 50 cm, 2.6 µm, 150 Å, Thermo Fisher Scientific) at 220 nl/min and 38 °C with a 90 min linear gradient from 5% to 30% buffer B (A: 0.1% FA in H2O/B: 99% ACN, 0.1% FA in H2O), regeneration at 5% B. The mass spectrometer was operated in positive ionization mode, in data-dependent mode with survey scans from m/z 350–1500 acquired in the Orbitrap at a resolution of 120,000 at m/z 400. The 20 most intense peaks from survey scans were selected for further fragmentation in the Linear Ion Trap with an isolation window of 2.0 Da and were fragmented by CID with normalized collision energy of 35%. (TOP20CID method) Unassigned and single charged states were excluded from fragmentation. The Ion Target Value for the survey scans (in the Orbitrap) and the MS2 mode (in the Linear Ion Trap) were set to 1E6 and 5E3 respectively and the maximum injection time was set to 100 ms for both scan modes. Dynamic exclusion was set to 20 s after one repeat count with mass width at ±10 ppm.
Proteins were identified by database searching using SequestHT (Thermo Fisher Scientific) with Proteome Discoverer 2.4 software (PD2.4, Thermo Fisher Scientific) on human FASTA database downloaded from SwissProt (reviewed, release 2020_11_27, 20304 entries, https://www.uniprot.org/). […]

The mark [12] stands for this setting: holdup affinity of the PBM peptide of the named protein, sheet PBMcomplexome, lower sub-table.
Setting [13] is: holdup affinity of the PBM peptide of the named protein, sheet PBMcomplexome, lower sub-table, 3.5 appears to be the floor for no detectable binding, read-out: affinity of PBM to DLG1_2 (pKd) (converted).
Where [14] appears, read: holdup affinity of the PBM peptide of the named protein, sheet PBMcomplexome, lower sub-table, 3.5 appears to be the floor for no detectable binding, read-out: affinity of PBM to TX1BP3 (pKd) (converted).
[15] abbreviates: holdup affinity of the PBM peptide of the named protein, sheet PBMcomplexome, lower sub-table, 3.5 appears to be the floor for no detectable binding, read-out: affinity of PBM to SCRIB_1 (pKd) (converted).
The mark [16] stands for this setting: PBM motif of the named protein vs DLG1_1 PDZ, read-out: pKd values – domain-motif, DLG1_1 (converted).
The mark [17] stands for this setting: PBM motif of the named protein vs DLG1_2 PDZ, read-out: pKd values – domain-motif, DLG1_2 (converted).
Setting [18] is: PBM motif of the named protein vs TX1BP3 PDZ, read-out: pKd values – domain-motif, TX1BP3 (converted).
Where [19] appears, read: PBM motif of the named protein vs SCRIB_1 PDZ, read-out: pKd values – domain-motif, SCRIB_1 (converted).
[20] abbreviates: PBM motif of the named protein vs SCRIB_2 PDZ, read-out: pKd values – domain-motif, SCRIB_2 (converted).

Sequence of SCRIB_1 PDZ (Q14160 728-815 limits assumed): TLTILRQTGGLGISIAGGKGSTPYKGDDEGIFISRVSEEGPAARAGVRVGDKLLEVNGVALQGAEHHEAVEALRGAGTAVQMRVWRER

In [1], `CC(C)C[C@H](NC(=O)[C@H](CC(=O)O)NC(=O)[C@@H]1CCCN1C(=O)[C@@H](NC(=O)CNC(=O)[C@H](CCC(=O)O)NC(=O)[C@H](CO)NC(=O)[C@H](CO)NC(=O)[C@H](CC(N)=O)NC(=O)[C@H](CC(C)C)NC(=O)[C@@H](N)CC(N)=O)C(C)C)C(=O)N[C@@H](CC(C)C)C(=O)N[C@H](C(=O)O)C(C)C` [SARS-CoV-E] had a Kd of 253 µM.
As to DDENIRTSDV [PLEKHA2], the Kd in assay [2] (setting [12]) is 14.5 µM; in assay [3] (holdup affinity of the PBM peptide of the named protein, sheet PBMcomplexome, lower sub-table, 3.5 appears to be the floor for no detectable binding, read-out: affinity of PBM to DLG1_1 (pKd) (converted)), 158 µM; in [4] (setting [13]), 34.7 µM; in assay [5] (setting [14]) it was 17.8 µM; in assay [6] (setting [15]), 178 µM; in assay [7] (holdup affinity of the PBM peptide of the named protein, sheet PBMcomplexome, lower sub-table, 3.5 appears to be the floor for no detectable binding, read-out: affinity of PBM to SCRIB_2 (pKd) (converted)), 178 µM.
DTKNYKQTSV [CRIPT]: the Kd was 4.68 µM in assay [2]; 44.7 µM in assay [3] (setting [16]); 8.51 µM in assay [4] (setting [17]); 3.98 µM in assay [5] (setting [18]); 13.2 µM in assay [6] (setting [19]); 24.5 µM in assay [7] (setting [20]).
EKPIDSETKM [SLC1A3] showed a Kd in assay [2] (setting [12]) of 6.61 µM.
With EVVHTPETSV [SLC16A3], the Kd in assay [2] was 7.08 µM; in assay [3] (setting [16]), 135 µM; in [4] (setting [17]), 50.1 µM; in assay [5] (setting [18]), 145 µM; in [6] (setting [19]), 8.32 µM; in assay [7] (setting [20]), 33.1 µM.
With FHPLGADSQV [SLC2A1], the Kd is 89.1 µM in [2], 132 µM in assay [4] (setting [17]), 170 µM in assay [5] (setting [18]) and 95.5 µM in assay [6] (setting [19]).
As to KKKKGQYYFV [HtrA2-Opt], the “pKd, measured in literature” value in [8] is recorded as 8.42; in assay [9], 7.7167.
Turning to LDSQIQETSI [MAP4], the Kd in [2] was 1.86 µM; in assay [3] (setting [16]), 229 µM; in [4] (setting [17]) it was 42.7 µM; in assay [5] (setting [18]) it was 110 µM; in [6] (setting [19]) it was 2.75 µM; in [7] (setting [20]), 35.5 µM.
In [10], PPRQRSETQV [HPV82E6] gave a Kd of 13.7 µM.
Consider QGLAERISVL [PRKD2], for which the Kd in assay [2] (setting [12]) was 16.6 µM; in [4] (setting [13]), 214 µM; in [5] (setting [14]) it was 41.7 µM; in assay [6] (setting [15]) it was 170 µM.
For the compound QSARYRDTEL [TJP2 (ZO2)], the Kd is 20.4 µM in assay [2]; 209 µM in assay [3] (setting [16]); 170 µM in [4] (setting [17]); 17.4 µM in [5] (setting [18]); 34.7 µM in assay [6] (setting [19]); 126 µM in assay [7] (setting [20]).
TBCD: in [11] (E6 cell line vs control), the “Difference log2 E6/Ctrl” value was 0.5689 and the “Ratio E6/Ctrl” value is on record as 1.483. Further, in assay [11] (dPBM cell line vs E6 cell line), the “Difference log2 dPBM/E6” value is given as -3.03 and the “Ratio dPBM/E6” value was found to be 0.1225. In addition, in [11] (dPBM cell line vs control), the “Difference log2 dPBM/Ctrl” value is on record as -2.461 and the “Ratio dPBM/Ctrl” value turned out to be 0.1817.
For the compound TSQESEDTYL [TBC1D10A], the Kd in assay [2] (setting [12]) is 5.37 µM; in [6] (setting [15]), 102 µM.
